Drawing on BindingDB's records for doi:10.1021/jm050280z (Uppsala University, 2005), this text covers Ki for 4 compounds.

Starred links: 1 amine or outer side, 2 acyl side, 3 side chain; linkers in the order of their positions; H or OH if unused. Non-standard residues stand in square brackets, D forms with d. Residues, ends and D or L forms follow the SMILES beside them. X2 = O=C(c1cc(CN[*:1])cc(Cc2ccc(O)cc2)c1)[*:2]; X1 = O=C(c1cc(Cc2ccc(O)cc2)cc(N[*:1])c1)[*:2]

The test concerns the target Type-2 angiotensin II receptor (Sus scrofa). As to the kind of experiment: Binding affinity for angiotensin II receptor, type 2 in pig uterus myometrium using [125I]-Ang II as radioligand, in pH 7.4 Tris-HCl buffer for 1.5 hr at 25 degree C.
For orientation: Ki means a measure of affinity in units of concentration, obtained from inhibition or displacement. Compound `N=C(N)NCCC[C@H](NC(=O)[C@@H](N)CC(=O)O)C(=O)NCc1cc(Cc2ccc(O)cc2)cc(C(=O)N[C@@H](Cc2cnc[nH]2)C(=O)N2CCC[C@H]2C(=O)N[C@@H](Cc2ccccc2)C(=O)O)c1` [(S)-3-Amino-N-{(S)-1-[3-[(S)-2-[2-((S)-(S)-1-carboxy-2-phenyl-ethylcarbamoyl)-pyrrolidin-1-yl]-1-(3H-imidazol-4-ylmethyl)-2-oxo-ethylcarbamoyl]-5-(4-hydroxy-benzyl)-benzylcarbamoyl]-4-guanidino-butyl}-succinamic acid] (H-DR[X2]HPF-OH) showed a Ki of 10.1 nM. `CC(C)[C@H](NC(=O)[C@H](CCCNC(=N)N)NC(=O)[C@@H](N)CC(=O)O)C(=O)Nc1cc(Cc2ccc(O)cc2)cc(C(=O)N[C@@H](Cc2cnc[nH]2)C(=O)N2CCC[C@H]2C(=O)N[C@@H](Cc2ccccc2)C(=O)O)c1` [(S)-3-Amino-N-((S)-1-{(S)-1-[(S)-3-[2-[2-((S)-(S)-1-carboxy-2-phenyl-ethylcarbamoyl)-pyrrolidin-1-yl]-1-(3H-imidazol-4-ylmethyl)-2-oxo-ethylcarbamoyl]-5-(4-hydroxy-benzyl)-phenylcarbamoyl]-2-methyl-propylcarbamoyl}-4-guanidino-butyl)-succinamic acid] (H-DRV[X1]HPF-OH) returned a Ki of 9.8 nM.

`N=C(N)NCCC[C@H](NC(=O)[C@@H](N)CC(=O)O)C(=O)Nc1cc(Cc2ccc(O)cc2)cc(C(=O)N[C@@H](Cc2cnc[nH]2)C(=O)N2CCC[C@H]2C(=O)N[C@@H](Cc2ccccc2)C(=O)O)c1` [(S)-3-Amino-N-{(S)-1-[3-[(S)-2-[2-((S)-(S)-1-carboxy-2-phenyl-ethylcarbamoyl)-pyrrolidin-1-yl]-1-(3H-imidazol-4-ylmethyl)-2-oxo-ethylcarbamoyl]-5-(4-hydroxy-benzyl)-phenylcarbamoyl]-4-guanidino-butyl}-succinamic acid] (H-DR[X1]HPF-OH) displayed a Ki of 41.3 nM. In turn, `CC(C)[C@H](NC(=O)[C@H](CCCNC(=N)N)NC(=O)[C@@H](N)CC(=O)O)C(=O)NCc1cc(Cc2ccc(O)cc2)cc(C(=O)N[C@@H](Cc2cnc[nH]2)C(=O)N2CCC[C@H]2C(=O)N[C@@H](Cc2ccccc2)C(=O)O)c1` [(S)-3-Amino-N-((S)-1-{1-[(S)-3-[2-[2-((S)-(S)-1-carboxy-2-phenyl-ethylcarbamoyl)-pyrrolidin-1-yl]-1-(3H-imidazol-4-ylmethyl)-2-oxo-ethylcarbamoyl]-5-(4-hydroxy-benzyl)-benzylcarbamoyl]-2-methyl-propylcarbamoyl}-4-guanidino-butyl)-succinamic acid] (H-DRV[X2]HPF-OH) returned an inhibition constant Ki of 1.85 nM.
